According to ChEMBL document CHEMBL1150858, “Two new cytotoxic and virucidal trisulfated triterpene glycosides from the Antarctic sea cucumber Staurocucumis liouvillei” (J Nat Prod, 2001):

Tests used:
Vero [1] = test: Cytotoxicity against african green monkey Vero cells at 6.25 to 50 ug/mL within 8 hrs by MTT assay; assay type: cell-based; conditions: chlorocebus sabaeus
Vero [2] = test: Cytotoxicity against african green monkey Vero cells at 6.25 to 50 ug/mL measured after prolonged incubation by MTT assay; assay type: cell-based; conditions: chlorocebus sabaeus
Human alphaherpesvirus 1 = test: Antiviral activity against HSV1 KOS in african green monkey Vero cells assessed as residual infectivity at 10 ug/mL by plaque formation assay; assay type: functional

| SMILES | Activity (Vero [1]) | Activity (Vero [2]) | Activity (Human alphaherpesvirus 1) |
| --- | --- | --- | --- |
| CO[C@@H]1[C@@H](O)[C@H](O[C@@H]2[C@@H](O)[C@H](O[C@H]3[C@H](O)[C@@H](O)[C@H](O[C@H]4[C@H](O[C@H]5CC[C@]6(C)[C@H]7CC[C@]89C(=O)O[C@@](C)(CCC=C(C)C)[C@H]8[C@@H](OC(C)=O)C[C@@]9(C)C7=CC[C@H]6C5(C)C)OC[C@@H](OS(=O)(=O)[O-])[C@@H]4O)O[C@@H]3C)O[C@H](COS(=O)(=O)[O-])[C@H]2O)O[C@H](COS(=O)(=O)[O-])[C@H]1O.[Na+].[Na+].[Na+] [LIOUVILLOSIDE A] | Non-toxic | Toxic | 24% |
| CO[C@@H]1[C@@H](O)[C@H](O[C@@H]2[C@@H](O)[C@H](O[C@H]3[C@H](O)[C@@H](O)[C@H](O[C@H]4[C@H](O[C@H]5CC[C@]6(C)[C@H]7CC[C@]89C(=O)O[C@@](C)(CCCC(C)C)[C@H]8[C@@H](OC(C)=O)C[C@@]9(C)C7=CC[C@H]6C5(C)C)OC[C@@H](OS(=O)(=O)[O-])[C@@H]4O)O[C@@H]3C)O[C@H](COS(=O)(=O)[O-])[C@H]2O)O[C@H](COS(=O)(=O)[O-])[C@H]1O.[Na+].[Na+].[Na+] [LIOUVILLOSIDE B] | Non-toxic | Toxic | 2.5% |
